{"source": "paper PMC12257073", "about": "(Cancer Research Communications, 2025)", "key": {"[1]": {"tested_on": "newly diagnosed AML with mutations in TP53 and/or complex karyotype", "assay": "Overall survival and duration of response (Kaplan–Meier)", "format": "in vivo, human", "conditions": "for Response duration: No. of events / Response duration: median (95% CI): patients who achieved CR/CRh/CRi", "experimental": "Demographics were summarized by descriptive statistics. Duration of response was calculated from the date when composite CR was achieved to […], censoring patients who remained alive and relapse-free at the time of the last follow-up. OS was calculated from treatment start to all-cause death, censoring patients who were alive at the time of the last follow-up. Kaplan–Meier methodology was used to assess OS and duration of response."}, "[2]": {"assay": "Plasma pharmacokinetics of TP-0903 and metabolites (LC-MS/MS, noncompartmental analysis)", "format": "in vivo, human", "conditions": "for Pre-treatment trough / Cmax / Tmax / AUC(0-t) / concentration at 24 h: median (range); for Cmax / Tmax / AUC(0-t) / concentration at 24 h: human, plasma, oral; for AUC(0-t): read-out: AUC0-24h; for concentration at 24 h: read-out: C24h trough", "experimental": "On days 1 and 10 of cycle 1, plasma samples were collected for PK analysis from a total of 25 patients. In the phase 1b study portion of the study, plasma was collected before administration of TP-0903 on day 10 and at 0.5, 1, 2, 4, 8, and 24 hours after administration of TP-0903 on days 1 and 10. In the phase 2 portion of the study, plasma was collected at 2, 4, and 24 hours after drug administration. A validated ultrahigh-performance LC-MS/MS method was developed and used to quantify TP-0903 and its four major metabolites (M2, M3, M4, and M6) in plasma.\nTP-0903 and its metabolites M2, M3, M4, and M6 were quantified in plasma using solid phase extraction and LC-MS/MS in the Ohio State University Comprehensive Cancer Center Pharmacoanalytical Shared Resource. See Supplementary Methods for details.\nSample preparation comprised 200 µL of K2EDTA plasma sample combined with 5 µL of 150 ng/mL internal standard mixture (TP-0903-d8 (NSN23293), M2-d8 (NSN23290), M3-d8 (NSN23292), M4-d8 (NSN23291), and M6-d8 (NSN23296)), 50 µL deionized (DI) water, and 50 µL of methanol in the wells of a 2-mL 96-well plate. Reference standards for TP-0903 (ditartrate salt), metabolites, and internal standards were obtained from Sumitomo Pharma America, Inc. (formerly Sumitomo Pharma Oncology, Inc.). Sample preparation was followed by shaking at 500 rpm for 5 minutes at room temperature and the addition of 1 mL of 0.1M sodium carbonate (791768-500G). After centrifugation at 3095 rcf for 10 minutes, 1 mL of supernatant was loaded onto a conditioned 30 mg HLB SPE plate (conditioning included 1 mL methanol flow through followed by 1 mL water flow through). After samples were loaded and passed through the SPE plate using a vacuum, the plate was washed with 1 mL DI water. Once the water passed through, analyte elution was done by loading 1 mL 2% formic acid in methanol, followed by drying with N2 gas heated to 40 °C. Once dried, they were resuspended with 100 µL reconstitution solution (22% acetonitrile, 22% methanol, 56% DI water, 0.5 mM ammonium acetate, and 0.2% formic acid). The chromatographic method utilized a gradient elution with mobile phase A (MPA; 15% acetonitrile, 15% methanol, 70% DI water, 0.5 mM ammonium acetate, and 0.2% formic acid) and mobile phase B (MPB; 45% acetonitrile, 45% methanol, 10% DI water, 0.5 mM ammonium acetate (09689-100G), and 0.2% formic acid (F0441-32)). The flow rate begins at 0.4 mL/min with 25% MPB, at 2.5 min the flow rate increased to 0.6 mL/min, at 5.5 minutes the %MPB increased to 100%, at 7.01 min the flow rate and %MPB decreased to 0.4 mL/min and 25%, respectively, until the end of the run. This method was run using an ACE Excel SuperC18 (3.0 x 75 mm, 5 µm, 90Å) column (EXL-1211-7503) with a ThermoFisher Scientific Vanquish™ – ThermoFisher Scientific (SCR_025713) TSQ Altis LC-MS/MS system (TSQ02-10002). The analytes and internal standards were evaluated in positive mode with the transitions monitored including M2 488.12->402.125, M2-d8 496.25->402.095, M3 502.2->402.113, M3-d8 510.2->402.113, M4 502.138->416.125, M4-d8 510.188->416.125, M6 518.112->402, M6-d8 526.2->402.113, and TP-0903 516.2->416.125, TP-0903-d8 524.237->416.125. […] Three quality control samples (QC Low, QC Medium, and QC High) were monitored during sample analyses to ensure the accuracy of assay quantitation. Additionally, a validation was performed that included the evaluation of selectivity, matrix effects, sensitivity, carry-over, freeze-thaw stability, processed sample stability, recovery, and dilution integrity (20X and 10X). Intra- and inter- day accuracy and precision of the calibrators and quality control samples, which also included the LLOQ for each analyte, was evaluated over 3 days. The quality control samples concentrations were continually monitored by statistical analysis of runs using Westgard rules (13s, 22s, R4s, and 10x) and adherence to FDA guidance of being within 15% except at the LLOQ of being within 20%. […]"}, "[3]": {"conditions": "TP53-mutated patients, TP-0903 + decitabine, n = 20"}, "[4]": {"conditions": "TP53-mutated patients, TP-0903 + decitabine"}, "[5]": {"conditions": "group 1, TP-0903 37 mg/day + decitabine, n = 15"}, "[6]": {"conditions": "group 1, TP-0903 37 mg/day + decitabine"}, "[7]": {"conditions": "group 2, TP-0903 25 mg/day + decitabine, n = 12"}, "[8]": {"conditions": "group 2, TP-0903 25 mg/day + decitabine"}, "[9]": {"conditions": "overall, TP-0903 + decitabine, n = 27"}, "[10]": {"conditions": "TP-0903 dose 25mg, Day 10 of course 1, plasma"}, "[11]": {"conditions": "TP-0903 dose 37 mg, Day 10 of course 1, plasma"}, "[12]": {"conditions": "25 mg, TP-0903 dose 25mg, Day 1 of course 1, plasma"}, "[13]": {"conditions": "25 mg, TP-0903 dose 25mg, Day 10 of course 1, plasma"}, "[14]": {"conditions": "37 mg, TP-0903 dose 37 mg, Day 1 of course 1, plasma"}, "[15]": {"conditions": "37 mg, TP-0903 dose 37 mg, Day 10 of course 1, plasma"}}, "note": "“And” between values parts separate entries of the source, which are not always exact repeats. Equal values may be shown once. Read-outs that look alike come from different tables or passages of the source.", "data": [{"smiles": "CN1CCN(Cc2ccc(Nc3ncc(Cl)c(Nc4ccccc4S(=O)(=O)N(C)C)n3)cc2)CC1.O=C(O)C(O)C(O)C(=O)O.O=C(O)C(O)C(O)C(=O)O", "note": "[TP-0903, 2-(5-chloro-2-(4-((4-methylpiperazin-1-yl)methyl)phenylamino)pyrimidin-4-yl)amino-N,N-dimethylbenzene-1-sulfonamide di-tartrate salt]", "values": [{"measurement": "OS: No. of events (deaths)", "setting": "[1]; [3]", "result": 13}, {"measurement": "OS: median (95% CI)", "setting": "[1]; [3]", "result": "10.0 (2.0–20.6) months"}, {"measurement": "Response duration: No. of events", "setting": "[1]; [4]", "result": 6}, {"measurement": "Response duration: median (95% CI)", "setting": "[1]; [4]", "result": "10.6 (3.3–NE) months"}, {"measurement": "OS: No. of events (deaths)", "setting": "[1]; [5]", "result": 10}, {"measurement": "OS: median (95% CI)", "setting": "[1]; [5]", "result": "7.6 (2.0–20.6) months"}, {"measurement": "Response duration: No. of events", "setting": "[1]; [6]", "result": 3}, {"measurement": "Response duration: median (95% CI)", "setting": "[1]; [6]", "result": "13.8 months and 13.8 (7.3–NE) months"}, {"measurement": "OS: No. of events (deaths)", "setting": "[1]; [7]", "result": 7}, {"measurement": "OS: median (95% CI)", "setting": "[1]; [7]", "result": "7.5 months and 7.5 (1.1 – NE) months"}, {"measurement": "Response duration: No. of events", "setting": "[1]; [8]", "result": 5}, {"measurement": "Response duration: median (95% CI)", "setting": "[1]; [8]", "result": "4.6 months and 4.6 (1.8–NE) months"}, {"measurement": "OS: No. of events (deaths)", "setting": "[1]; [9]", "result": 17}, {"measurement": "OS: median (95% CI)", "setting": "[1]; [9]", "result": "7.6 (3.3–13.4) months"}, {"measurement": "Response duration: No. of events", "setting": "[1]; overall, TP-0903 + decitabine", "result": 8}, {"measurement": "Response duration: median (95% CI)", "setting": "[1]; overall, TP-0903 + decitabine", "result": "7.3 (3.3–13.8) months"}, {"measurement": "Steady-state TP-0903 plasma exposure (Css Min on Day 10), responders vs non-responders", "setting": "[2]; Supplementary Fig. S3A", "result": "no significant difference"}, {"measurement": "Decrease in absolute neutrophil count or platelets in patients with steady-state plasma exposure above the median", "setting": "[2]; Supplementary Fig. S3B, S3C", "result": "did not have a greater decrease"}, {"measurement": "Pre-treatment trough", "setting": "[2]; [10]", "result": "7.1 (3.3-17) ng/mL"}, {"measurement": "Pre-treatment trough", "setting": "[2]; [11]", "result": "5.3 (1.0-21) ng/mL"}, {"measurement": "Drug accumulation ratio", "setting": "[2]; based on the median AUC, day 10 vs day 1, both groups", "result": "six"}, {"measurement": "Variation in the steady-state Cmax of parent TP-0903", "setting": "[2]; both groups (37 mg and 25 mg)", "result": "> 25", "unit": "fold"}, {"measurement": "Cmax", "setting": "[2]; [12]", "result": 2.4, "unit": "ng/mL"}, {"measurement": "Tmax", "setting": "[2]; [12]", "result": 2.8, "unit": "h"}, {"measurement": "AUC(0-t)", "setting": "[2]; 25 mg, TP-0903 dose 25mg, Day 1 of course 1, plasma, N=11", "result": 42, "unit": "ng·h/mL"}, {"measurement": "Cmax", "setting": "[2]; [13]", "result": 14, "unit": "ng/mL"}, {"measurement": "Tmax", "setting": "[2]; [13]", "result": 3.5, "unit": "h"}, {"measurement": "AUC(0-t)", "setting": "[2]; 25 mg, TP-0903 dose 25mg, Day 10 of course 1, plasma, N=8", "result": 260, "unit": "ng·h/mL"}, {"measurement": "Cmax", "setting": "[2]; [14]", "result": 3.3, "unit": "ng/mL"}, {"measurement": "Tmax", "setting": "[2]; [14]", "result": 2.1, "unit": "h"}, {"measurement": "AUC(0-t)", "setting": "[2]; 37 mg, TP-0903 dose 37 mg, Day 1 of course 1, plasma, N=10", "result": 36, "unit": "ng·h/mL"}, {"measurement": "Cmax", "setting": "[2]; [15]", "result": 13, "unit": "ng/mL"}, {"measurement": "Tmax", "setting": "[2]; [15]", "result": 3.9, "unit": "h"}, {"measurement": "AUC(0-t)", "setting": "[2]; 37 mg, TP-0903 dose 37 mg, Day 10 of course 1, plasma, N=9", "result": 210, "unit": "ng·h/mL"}, {"measurement": "concentration at 24 h", "setting": "[2]; TP-0903 dose 25mg, Day 1 of course 1, plasma", "result": 1.9, "unit": "ng/mL"}, {"measurement": "concentration at 24 h", "setting": "[2]; [10]", "result": 8.1, "unit": "ng/mL"}, {"measurement": "concentration at 24 h", "setting": "[2]; TP-0903 dose 37 mg, Day 1 of course 1, plasma", "result": 0.7, "unit": "ng/mL"}, {"measurement": "concentration at 24 h", "setting": "[2]; [11]", "result": 5.8, "unit": "ng/mL"}]}]}
